Experimental data as given in patent US8846001B2 (GE Healthcare Limited, priority 2009, dated 2014).

Columns and labels:
avidin = target: T1, avidin (Gallus gallus, UniProt P02701); test: Avidin binding saturation in solution, percentage binding determined by HPLC; conditions: 2-128 nmol ligand, 2 nmol avidin, 5 min, room temperature
T1 construct: avidin (lyophilised powder, from egg white); purchased Sigma-Aldrich; host or cells: egg white
Experimental: The percentage binding was determined by HPLC analysis.
The incubation was carried out during 5 min at room temperature with varied ligand concentration resulting in ligand/avidin ratio of 0.25, 1, 4 and 16. Data are presented as mean±SD (n=2). […] The specific binding presented as the avidin consumption in percentage was plotted against the ratio of total molar concentration of added ligands and avidin. The result was analyzed by nonlinear regression using the GraphPad Prism Software.

porcine islets = porcine islets in vitro; cited from earlier work

T1 sequence (P02701 25-152): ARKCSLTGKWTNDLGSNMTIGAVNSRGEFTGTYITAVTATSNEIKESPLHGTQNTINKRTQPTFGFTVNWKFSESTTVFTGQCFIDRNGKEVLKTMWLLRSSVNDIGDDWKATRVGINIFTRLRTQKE

Row | Compound | binding to avidin in solution (in words) (avidin) | half-life of retention (porcine islets) [h]
1 | O=C(O)CCCC[C@@H]1SC[C@@H]2NC(=O)N[C@@H]21 [Biotin, 5-[(3aS,4S,6aR)-2-oxohexahydro-1H-thieno[3,4-d]imidazol-4-yl]pentanoic acid] | highest binding | 
2 | OC[C@H]1OC(O)[C@H]([18F])[C@@H](O)[C@@H]1O (some centres unmarked) [[^18F]FDG] |  | 2.358
